In PubChem BioAssay AID248 (DTP/NCI, 2004):
Values joined by “and” are separate entries in the source; they are usually repeats but may differ in a detail not shown here. Identical values can stand only once. Toxic doses and inconclusive results are not listed.

Test system: L1210 leukemia ip in BDF1 mice, survival T/C
Experiment: NCI In Vivo Anticancer Drug Screen. Data for tumor model L1210 Leukemia (intraperitoneal) in B6D2F1 (BDF1) mice
Settings: endpoint: mean survival time, higher = longer survival
Method: The antitumor activity of compounds was measured in mice bearing transplantable tumors. Survival or tumor size were measured and the results are expressed as the measurement made in the treated group (T) divided by the measurement made in the vehicle treated control group (C). The tumor model used in this assay is L1210 Leukemia (intraperitoneal) in B6D2F1 (BDF1) mice

[1] = dose: 100.0 mg/kg/injection, schedule: Q01DX009 (ip), vehicle: Klucel (hydroxypropylcellulose) (HPC)
[2] = dose: 200.0 mg/kg/injection, schedule: Q01DX009 (ip), vehicle: Klucel (hydroxypropylcellulose) (HPC)

In the case of `NC(Cc1nccn1Cc1ccccc1)C(=O)O` (centres undefined), the T/C (dose: 75.0 mg/kg/injection, schedule: Q04DX002 (ip), vehicle: saline with Tween-80) is reported as 104 % of control, the T/C (dose: 150.0 mg/kg/injection, schedule: Q04DX002 (ip), vehicle: saline with Tween-80) is reported as 112 % of control and the T/C (dose: 300.0 mg/kg/injection, schedule: Q04DX002 (ip), vehicle: saline with Tween-80) is reported as 119 % of control.

For `CCCCCCCCN(CCCCCCCC)CC(O)c1ccc2cc(Br)c3ccccc3c2c1` (centres undefined), the T/C (dose: 100.0 mg/kg/injection, schedule: Q04DX003 (ip), vehicle: acetone) was 113 % of control, the T/C (dose: 200.0 mg/kg/injection, schedule: Q04DX003 (ip), vehicle: acetone) was 120 % of control and the T/C (dose: 400.0 mg/kg/injection, schedule: Q04DX003 (ip), vehicle: acetone) was 103 % of control.

For `CC1OC(C2COC(C)(C)O2)C2OC(C)(C)OC12` (centres undefined), the T/C (dose: 100.0 mg/kg/injection, schedule: Q01DX001 (ip), vehicle: saline with Tween-80) was 101 % of control, the T/C (dose: 200.0 mg/kg/injection, schedule: Q01DX001 (ip), vehicle: saline with Tween-80) was 101 % of control and the T/C (dose: 400.0 mg/kg/injection, schedule: Q01DX001 (ip), vehicle: saline with Tween-80) was 101 % of control.

For `CCOC(=O)C1OC1(C)c1ccccc1` (centres undefined), the T/C (dose: 100.0 mg/kg/injection, schedule: Q01DX009 (ip), vehicle: saline) was 102 % of control, the T/C (dose: 100.0 mg/kg/injection, schedule: Q04DX003 (ip), vehicle: saline) was 100 % of control and the T/C (dose: 200.0 mg/kg/injection, schedule: Q01DX009 (ip), vehicle: saline) was 100 % of control. For the same compound, the T/C (dose: 200.0 mg/kg/injection, schedule: Q04DX003 (ip), vehicle: saline) was 94 % of control, the T/C (dose: 400.0 mg/kg/injection, schedule: Q01DX009 (ip), vehicle: saline) was 102 % of control and the T/C (dose: 400.0 mg/kg/injection, schedule: Q04DX003 (ip), vehicle: saline) was 107 % of control.

`O=C1c2ccccc2C(=O)N1c1ccc([N+](=O)[O-])cc1` was tested, and the T/C (dose: 100.0 mg/kg/injection, schedule: Q01DX001 (ip), vehicle: Klucel (hydroxypropylcellulose) (HPC)) was 103 % of control, the T/C (dose: 200.0 mg/kg/injection, schedule: Q01DX001 (ip), vehicle: Klucel (hydroxypropylcellulose) (HPC)) was 97 % of control and the T/C (dose: 400.0 mg/kg/injection, schedule: Q01DX001 (ip), vehicle: Klucel (hydroxypropylcellulose) (HPC)) was 103 % of control.

`CS/C(N)=N\[N+](=O)[O-]` was tested, and the T/C (dose: 50.0 mg/kg/injection, schedule: Q01DX009 (ip), vehicle: Klucel (hydroxypropylcellulose) (HPC)) was 89 % of control, the T/C [1] was 110 % of control and the T/C [2] was 114 % of control.

In the case of `CCC(C)(C)c1ccc(O)c(C(C)(C)CC)c1`, the T/C [1] is reported as 96 % of control, the T/C (dose: 100.0 mg/kg/injection, schedule: Q04DX003 (ip), vehicle: Klucel (hydroxypropylcellulose) (HPC)) is reported as 100 % of control and the T/C [2] is reported as 96 % of control. For the same compound, the T/C (dose: 200.0 mg/kg/injection, schedule: Q04DX003 (ip), vehicle: Klucel (hydroxypropylcellulose) (HPC)) was 89 % of control, the T/C (dose: 400.0 mg/kg/injection, schedule: Q01DX009 (ip), vehicle: Klucel (hydroxypropylcellulose) (HPC)) was 96 % of control and the T/C (dose: 400.0 mg/kg/injection, schedule: Q04DX003 (ip), vehicle: Klucel (hydroxypropylcellulose) (HPC)) was 87 % of control.

In the case of `N#C/C(=C/C=C/c1ccccc1)c1cccc([N+](=O)[O-])c1`, the T/C (dose: 100.0 mg/kg/injection, schedule: Q01DX009 (ip), vehicle: saline with Tween-80) is reported as 108 % of control, the T/C (dose: 200.0 mg/kg/injection, schedule: Q01DX009 (ip), vehicle: saline with Tween-80) is reported as 91 % of control and the T/C (dose: 400.0 mg/kg/injection, schedule: Q01DX009 (ip), vehicle: saline with Tween-80) is reported as 100 % of control.

In the case of `Cc1ccc(S(=O)(=O)N(C)Cc2ccccc2)cc1`, the T/C (dose: 100.0 mg/kg/injection, schedule: Q04DX003 (ip), vehicle: saline with Tween-80) is reported as 95 % of control, the T/C (dose: 200.0 mg/kg/injection, schedule: Q04DX003 (ip), vehicle: saline with Tween-80) is reported as 101 % of control and the T/C (dose: 400.0 mg/kg/injection, schedule: Q04DX003 (ip), vehicle: saline with Tween-80) is reported as 101 % of control.

With `NC(N)=NCCCS(=O)(=O)Nc1ccc(Nc2c3ccccc3nc3cc([N+](=O)[O-])ccc23)cc1` the T/C (dose: 3.0 mg/kg/injection, schedule: Q01DX009 (ip), vehicle: water) was 186 % of control, the T/C (dose: 6.0 mg/kg/injection, schedule: Q01DX009 (ip), vehicle: water) was 160 % of control and the T/C (dose: 6.25 mg/kg/injection, schedule: Q04DX002 (ip), vehicle: saline with Tween-80) was 102 % of control. For the same compound, the T/C (dose: 6.25 mg/kg/injection, schedule: Q04DX003 (ip), vehicle: water) was 186 % of control, the T/C (dose: 12.5 mg/kg/injection, schedule: Q04DX002 (ip), vehicle: saline with Tween-80) was 120 % of control and the T/C (dose: 25.0 mg/kg/injection, schedule: Q04DX002 (ip), vehicle: saline with Tween-80) was 124 % of control. The T/C (dose: 50.0 mg/kg/injection, schedule: Q04DX003 (ip), vehicle: water) was 161 % of control, the T/C (dose: 100.0 mg/kg/injection, schedule: Q04DX002 (ip), vehicle: saline with Tween-80) was 150 % of control and the T/C (dose: 200.0 mg/kg/injection, schedule: Q04DX002 (ip), vehicle: saline with Tween-80) was 183 % of control.

With `CC(=O)N\C(N)=N/N=C\C(C)=N/N=C(\N)NC(C)=O` the T/C (dose: 15.0 mg/kg/injection, schedule: Q01DX Z (ip), vehicle: carboxymethylcellulose (CMC)) was 94 % of control, the T/C (dose: 30.0 mg/kg/injection, schedule: Q01DX Z (ip), vehicle: carboxymethylcellulose (CMC)) was 94 % of control and the T/C (dose: 60.0 mg/kg/injection, schedule: Q01DX Z (ip), vehicle: carboxymethylcellulose (CMC)) was 97 % of control and 100 % of control. For the same compound, the T/C (dose: 120.0 mg/kg/injection, schedule: Q01DX Z (ip), vehicle: carboxymethylcellulose (CMC)) was 94 % of control and 102 % of control and the T/C (dose: 240.0 mg/kg/injection, schedule: Q01DX Z (ip), vehicle: carboxymethylcellulose (CMC)) was 109 % of control.

`Cc1cccc2c(N=Nc3ccccc3[N+](=O)[O-])c(O)[nH]c12` was tested, and the T/C (dose: 100.0 mg/kg/injection, schedule: Q01DX001 (ip), vehicle: saline) was 101 % of control and the T/C (dose: 400.0 mg/kg/injection, schedule: Q01DX001 (ip), vehicle: saline) was 97 % of control.
